Results as given in patent US10188108B2, “Fused bicyclic heterocycle derivatives as pesticides” (BAYER CROPSCIENCE AKTIENGESELLSCHAFT, priority 2015, dated 2019).

What was measured:
[1] = log P by HPLC on a reversed-phase column (C 18), EEC Directive 79/831 Annex V.A8; assay type: physicochemical; conditions: 55° C.; for LOGP_HCOOH: acidic range, pH 2.7, 0.1% aqueous formic acid/acetonitrile; for LOGP_NEUTRAL: neutral range, pH 7.8, 0.001 molar aqueous ammonium hydrogencarbonate/acetonitrile
Description: The log P values are measured according to EEC Directive 79/831 Annex V.A8 by HPLC (high-performance liquid chromatography) on a reversed-phase column (C 18). Temperature: 55° C.
The LC-MS determination in the acidic range is effected at pH 2.7 using 0.1% aqueous formic acid and acetonitrile (contains 0.1% formic acid) as eluents; linear gradient from 10% acetonitrile to 95% acetonitrile. Called log P (HCOOH) in the table.
LC-MS determination in the neutral range is effected at pH 7.8 with 0.001 molar aqueous ammonium hydrogencarbonate solution and acetonitrile as eluents; linear gradient from 10% acetonitrile to 95% acetonitrile. Called log P (neutral) in the table.
Calibration is carried out using unbranched alkan-2-ones (having 3 to 16 carbon atoms) with known log P values (log P values determined on the basis of the retention times by linear interpolation between two successive alkanones).

Lucilia cuprina = Lucilia cuprina test; assay type: in vivo; conditions: 100 ppm, after 2 days, L1 larvae
Description: • Solvent: dimethyl sulphoxide To produce a suitable preparation of active compound, 10 mg of active compound are mixed with 0.5 ml of dimethyl sulphoxide, and the concentrate is diluted with water to the desired concentration. About 20 L1 larvae of the Australian sheep blowfly (Lucilia cuprina) are transferred into a test vessel containing minced horsemeat and the active compound preparation of the desired concentration. After 2 days, the kill in % is determined. 100% means that all the larvae have been killed; 0% means that no larvae have been killed.

Phaedon cochleariae = Phaedon cochleariae - spray test; assay type: in vivo; conditions: 500 g/ha, after 7 days, larvae on Chinese cabbage leaf discs
Description: (§1) • Solvent: 78.0 parts by weight of acetone • 1.5 parts by weight of dimethylformamide • Emulsifier: alkylaryl polyglycol ether
(§2) To produce a suitable preparation of active compound, 1 part by weight of active compound is dissolved using the stated parts by weight of solvent and made up with water containing an emulsifier concentration of 1000 ppm until the desired concentration is attained. To produce further test concentrations, the preparation is diluted with emulsifier-containing water.
After 7 days, the efficacy in % is determined. 100% means that all the beetle larvae have been killed; 0% means that no beetle larvae have been killed.

Spodoptera frugiperda = Spodoptera frugiperda - spray test; assay type: in vivo; conditions: 500 g/ha, after 7 days, caterpillars on maize leaf discs
Description: as §1, §2
Leaf discs of maize (Zea mays) are sprayed with an active compound preparation of the desired concentration and, after drying, populated with caterpillars of the armyworm (Spodoptera frugiperda).
After 7 days, the efficacy in % is determined. 100% means that all the caterpillars have been killed; 0% means that no caterpillars have been killed.

Myzus persicae [2] = test: Myzus persicae spray test (bell pepper plants); assay type: in vivo; conditions: 100 ppm, after 6 days
Description: • Solvent: 14 parts by weight of dimethylformamide • Emulsifier: alkylaryl polyglycol ether
as §2, with “water. If the addition of ammonium salts or/and penetrants is required, these are each added in a concentration of 1000 ppm to the formulation solution.” for “water.”
Bell pepper plants (Capsicum annuum) severely infested with the green peach aphid (Myzus persicae) are treated by spraying with the active compound preparation in the desired concentration.
After 6 days, the kill in % is determined. 100% means that all of the aphids have been killed; 0% means that none of the aphids have been killed.

Ctenocephalides felis [3] = test: Ctenocephalides felis - in vitro contact tests with adult cat fleas; assay type: in vivo; conditions: 5 μg/cm^2 (=500 g/ha), after 48 h, adult cat fleas dead or moribund
Description: (§3) For the coating of the test tubes, 9 mg of active compound are first dissolved in 1 ml of acetone p.a. and then diluted to the desired concentration with acetone p.a. 250 μl of the solution are distributed homogeneously on the inner walls and the base of a 25 ml test tube by turning and rocking on an orbital shaker (rocking rotation at 30 rpm for 2 h). With 900 ppm active compound solution and internal surface 44.7 cm^2, given homogeneous distribution, an area-based dose of 5 μg/cm^2 is achieved.
After the solvent has evaporated off, the tubes are populated with 5-10 adult cat fleas (Ctenocephalides felis), sealed with a perforated plastic lid and incubated in a horizontal position at room temperature and ambient humidity. After 48 h, efficacy is determined. To this end, the test tubes are stood upright and the fleas are knocked to the base of the tube. Fleas which remain motionless at the base or move in an uncoordinated manner are considered to be dead or moribund.
100% efficacy means that all the fleas were dead or moribund. 0% efficacy means that no fleas were harmed.

Boophilus microplus = Boophilus microplus - injection test; assay type: in vivo; conditions: 20 μg/animal injected, engorged adult female cattle ticks, laying of fertile eggs after 7 days
Description: • Solvent: dimethyl sulphoxide
To produce a suitable preparation of active compound, 10 mg of active compound are mixed with 0.5 ml of solvent and the concentrate is diluted with solvent to the desired concentration.
1 μl of the active compound solution is injected into the abdomen of 5 engorged adult female cattle ticks (Boophilus microplus). The animals are transferred into dishes and kept in a climate-controlled room.
Efficacy is assessed after 7 days by laying of fertile eggs. Eggs which are not visibly fertile are stored in a climate-controlled cabinet until the larvae hatch after about 42 days. An efficacy of 100% means that none of the ticks has laid any fertile eggs; 0% means that all the eggs are fertile.

Ctenocephalides felis [4] = test: Ctenocephalides felis - oral test; assay type: in vivo; conditions: 100 ppm in citrated cattle blood, after 2 days, adult cat fleas
Description: • Solvent: dimethyl sulphoxide To produce a suitable preparation of active compound, 10 mg of active compound are mixed with 0.5 ml of dimethyl sulphoxide. Dilution with citrated cattle blood gives the desired concentration. About 20 unfed adult cat fleas (Ctenocephalides felis) are placed into a chamber which is closed at the top and bottom with gauze. A metal cylinder whose bottom end is closed with parafilm is placed onto the chamber. The cylinder contains the blood/active compound preparation, which can be imbibed by the fleas through the parafilm membrane. After 2 days, the kill in % is determined. 100% means that all of the fleas have been killed; 0% means that none of the fleas have been killed.

Musca domestica = Musca domestica test; assay type: in vivo; conditions: after 2 days, adult houseflies
Description: • Solvent: dimethyl sulphoxide To produce a suitable preparation of active compound, 10 mg of active compound are mixed with 0.5 ml of dimethyl sulphoxide, and the concentrate is diluted with water to the desired concentration. Vessels containing a sponge treated with sugar solution and the active compound preparation of the desired concentration are populated with 10 adult houseflies (Musca domestica). After 2 days, the kill in % is determined. 100% means that all of the flies have been killed; 0% means that none of the flies have been killed.

Rhipicephalus sanguineus = Rhipicephalus sanguineus - in vitro contact tests with adult brown dog ticks; assay type: in vivo; conditions: 5 μg/cm^2 (=500 g/ha), after 48 h, adult dog ticks dead or moribund
Description: as §3, with “p.a. and 20 then diluted” for “p.a. and then diluted”
After the solvent has evaporated off, the tubes are populated with 5-10 adult dog ticks (Rhipicephalus sanguineus), sealed with a perforated plastic lid and incubated in a horizontal position in the dark at room temperature and ambient humidity. After 48 h, efficacy is determined. To this end, the ticks are knocked to the base of the tube and incubated on a hotplate at 45-50° C. for not more than 5 min. Ticks which remain motionless on the base or move in such an uncoordinated manner that they are unable to deliberately avoid the heat by climbing upwards are considered to be dead or moribund.
An efficacy of 100% means that all the ticks were dead or moribund. 0% efficacy means that none of the ticks were harmed.

Myzus persicae [5] = test: Myzus persicae - spray test (Chinese cabbage leaf discs); assay type: in vivo; conditions: 500 g/ha, after 5-6 days
Description: • Solvent: 78 parts by weight of acetone • 1.5 parts by weight of dimethylformamide • Emulsifier: alkylaryl polyglycol ether
as §2
Discs of Chinese cabbage leaves (Brassica pekinensis) infested by all stages of the green peach aphid (Myzus persicae) are sprayed with an active compound preparation of the desired concentration.
After 5-6 days, the efficacy in % is determined. 100% means that all the aphids have been killed; 0% means that no aphids have been killed.

Meloidogyne incognita = Meloidogyne incognita test; assay type: in vivo; conditions: 20 ppm, after 14 days, formation of galls on lettuce roots
Description: • Solvent: 125.0 parts by weight of acetone To produce a suitable preparation of active compound, 1 part by weight of active compound is mixed with the stated amount of solvent and the concentrate is diluted with water to the desired concentration. Vessels are filled with sand, active compound solution, an egg/larvae suspension of the southern root-knot nematode (Meloidogyne incognita) and lettuce seeds. The lettuce seeds germinate and the plants develop. The galls develop on the roots. After 14 days, the nematicidal efficacy in % is determined by the formation of galls. 100% means that no galls were found; 0% means that the number of galls on the treated plants corresponds to the untreated control.

Haemonchus contortus = Haemonchus contortus test; assay type: in vivo; conditions: 20 ppm, after 5 days, larvae
Description: • Solvent: Dimethyl Sulphoxide To produce a suitable preparation of active compound, 10 mg of active compound are mixed with 0.5 ml of dimethyl sulphoxide and the concentrate is diluted with “Ringer's solution” to the desired concentration. Vessels containing the active compound preparation of the desired concentration are populated with about 40 larvae of the red stomach worm (Haemonchus contortus). After 5 days, the kill in % is determined. 100% means that all the larvae have been killed; 0% means that none of the larvae have been killed.

Tetranychus urticae = Tetranychus urticae - spray test, OP-resistant; assay type: in vivo; conditions: 500 g/ha, after 6 days, bean leaf discs
Description: as §1, §2
Discs of bean leaves (Phaseolus vulgaris) infested with all stages of the greenhouse red spider mite (Tetranychus urticae) are sprayed with an active compound preparation of the desired concentration.
After 6 days, the efficacy in % is determined. 100% means that all the spider mites have been killed; 0% means that no spider mites have been killed.

Structure (SMILES): CCS(=O)(=O)c1c(-c2nc3cc(C(F)(F)F)ccc3n2C)nc2ccccn12 [Example I-10]
- LOGP_HCOOH [1]: 2.70
- LOGP_NEUTRAL [1]: 2.64
- efficacy (kill) (Lucilia cuprina): 100%
- efficacy (Phaedon cochleariae): 100%
- efficacy (Spodoptera frugiperda): 100%
- efficacy (kill) (Myzus persicae [2]): 100%

Structure (SMILES): CC[S+]([O-])c1c(-c2nc3cc(C(F)(F)F)ncc3n2C)nc2cc(C(F)(F)F)ccn12 (stereo not drawn) [Example I-18]
- LOGP_HCOOH [1]: 3.29
- LOGP_NEUTRAL [1]: 3.25
- efficacy (Ctenocephalides felis [3]): 100%
- efficacy (Boophilus microplus): 95%
- efficacy (kill) (Ctenocephalides felis [4]): 100%
- efficacy (kill) (Lucilia cuprina): 100%
- efficacy (kill) (Musca domestica; 4 ppm): 95%
- efficacy (Phaedon cochleariae): 100%
- efficacy (Spodoptera frugiperda): 100%

Structure (SMILES): CCS(=O)(=O)c1c(-c2nc3cc(C(F)(F)F)ccc3n2C)nc2ccc(C)cn12 [Example I-35]
- LOGP_HCOOH [1]: 2.98
- efficacy (Ctenocephalides felis [3]): 100%
- efficacy (Rhipicephalus sanguineus): 80%
- efficacy (Myzus persicae [5]): 90%
- efficacy (Spodoptera frugiperda): 100%

Structure (SMILES): CCSc1c(-c2nc3cc(C(F)(F)F)cnc3n2C)nc2ccccn12 [Example I-52]
- LOGP_HCOOH [1]: 3.43
- LOGP_NEUTRAL [1]: 3.39
- nematicidal efficacy (Meloidogyne incognita): 100%
- efficacy (Phaedon cochleariae): 100%

Structure (SMILES): CCS(=O)(=O)c1c(-c2nc3cc(C(F)(F)F)cnc3n2C)nc2ccccn12 [Example I-59]
- LOGP_HCOOH [1]: 2.58
- LOGP_NEUTRAL [1]: 2.49
- efficacy (Ctenocephalides felis [3]): 100%
- efficacy (Rhipicephalus sanguineus): 100%
- efficacy (kill) (Ctenocephalides felis [4]): 80%
- efficacy (kill) (Haemonchus contortus): 80%
- efficacy (kill) (Lucilia cuprina): 100%
- efficacy (kill) (Musca domestica; 20 ppm): 80%
- efficacy (Myzus persicae [5]): 90%
- efficacy (Phaedon cochleariae): 100%
- efficacy (Spodoptera frugiperda): 100%
- efficacy (Tetranychus urticae): 90%
